From the NIST ThermoML archive (doi:10.1021/je200434a)

Settings: 101.33 kPa, Liquid; for viscosity: Concentric cylinders viscometry; for mass density: Vibrating tube method

CCCCCCCCOS(=O)(=O)[O-].CCn1cc[n+](C)c1 [1-ethyl-3-methylimidazolium octyl sulfate]
Settings	mass density [kg/m3]	viscosity [mPa·s]
283.15 K	–	1879
288.15 K	–	1252.1
293.15 K	1098.76	856
294.15 K	1098.1	–
295.15 K	1097.43	–
296.15 K	1096.77	–
297.15 K	1096.31	–
298.15 K	1095.65	601.6
299.15 K	1094.99	–
300.15 K	1094.32	–
301.15 K	1093.65	–
302.15 K	1092.99	–
303.15 K	1092.32	433.6
304.15 K	1091.66	–
305.15 K	1090.99	–
306.15 K	1090.33	–
307.15 K	1089.66	–
308.15 K	1089	319.6
309.15 K	1088.33	–
310.15 K	1087.67	–
311.15 K	1087	–
312.15 K	1086.34	–
313.15 K	1085.68	240.5
314.15 K	1085.02	–
315.15 K	1084.36	–
316.15 K	1083.7	–
317.15 K	1083.04	–
318.15 K	1082.38	184.4
319.15 K	1081.72	–
320.15 K	1081.06	–
321.15 K	1080.4	–
322.15 K	1079.75	–
323.15 K	1079.09	143.8
324.15 K	1078.44	–
325.15 K	1077.78	–
326.15 K	1077.13	–
327.15 K	1076.48	–
328.15 K	1075.83	113.9
329.15 K	1075.17	–
330.15 K	1074.52	–
331.15 K	1073.87	–
332.15 K	1073.23	–
333.15 K	1072.58	91.6
334.15 K	1071.93	–
335.15 K	1071.29	–
336.15 K	1070.64	–
337.15 K	1070	–
338.15 K	1069.35	74.5
339.15 K	1068.71	–
340.15 K	1068.07	–
341.15 K	1067.43	–
342.15 K	1066.79	–
343.15 K	1066.15	61.4
344.15 K	1065.51	–
345.15 K	1064.87	–
346.15 K	1064.23	–
347.15 K	1063.6	–
348.15 K	1062.96	51.1
349.15 K	1062.32	–
350.15 K	1061.69	–
351.15 K	1061.05	–
352.15 K	1060.42	–
353.15 K	1059.79	43
354.15 K	1059.16	–
355.15 K	1058.53	–
356.15 K	1057.89	–
357.15 K	1057.26	–
358.15 K	1056.63	36.5
359.15 K	1056	–
360.15 K	1055.37	–
361.15 K	1054.75	–
362.15 K	1054.12	–
363.15 K	1053.49	31.3
368.15 K	–	27
373.15 K	–	23.5

CCCCCCOS(=O)(=O)[O-].CC[n+]1ccn(C)c1 [3-ethyl-1-methyl-1H-imidazolium hexyl sulfate]
Settings	mass density [kg/m3]	viscosity [mPa·s]
283.15 K	–	875
288.15 K	–	604
293.15 K	1133.8	428.3
294.15 K	1133.12	–
295.15 K	1132.45	–
296.15 K	1131.77	–
297.15 K	1131.09	–
298.15 K	1130.42	311.4
299.15 K	1129.74	–
300.15 K	1129.07	–
301.15 K	1128.4	–
302.15 K	1127.72	–
303.15 K	1127.05	231.5
304.15 K	1126.38	–
305.15 K	1125.71	–
306.15 K	1125.04	–
307.15 K	1124.37	–
308.15 K	1123.7	175.7
309.15 K	1123.03	–
310.15 K	1122.36	–
311.15 K	1121.7	–
312.15 K	1121.03	–
313.15 K	1120.37	135.9
314.15 K	1119.7	–
315.15 K	1119.04	–
316.15 K	1118.38	–
317.15 K	1117.72	–
318.15 K	1117.06	106.9
319.15 K	1116.4	–
320.15 K	1115.74	–
321.15 K	1115.08	–
322.15 K	1114.42	–
323.15 K	1113.77	85.4
324.15 K	1113.12	–
325.15 K	1112.46	–
326.15 K	1111.81	–
327.15 K	1111.16	–
328.15 K	1110.51	69.2
329.15 K	1109.86	–
330.15 K	1109.21	–
331.15 K	1108.56	–
332.15 K	1107.92	–
333.15 K	1107.27	56.8
334.15 K	1106.63	–
335.15 K	1105.98	–
336.15 K	1105.33	–
337.15 K	1104.69	–
338.15 K	1104.05	47.2
339.15 K	1103.41	–
340.15 K	1102.77	–
341.15 K	1102.13	–
342.15 K	1101.49	–
343.15 K	1100.85	39.6
344.15 K	1100.21	–
345.15 K	1099.57	–
346.15 K	1098.93	–
347.15 K	1098.3	–
348.15 K	1097.66	33.6
349.15 K	1097.02	–
350.15 K	1096.39	–
351.15 K	1095.75	–
352.15 K	1095.12	–
353.15 K	1094.49	28.8
354.15 K	1093.85	–
355.15 K	1093.22	–
356.15 K	1092.59	–
357.15 K	1091.95	–
358.15 K	1091.32	24.8
359.15 K	1090.69	–
360.15 K	1090.06	–
361.15 K	1089.43	–
362.15 K	1088.8	–
363.15 K	1088.17	21.6
368.15 K	–	18.9
373.15 K	–	16.7

CCCCOS(=O)(=O)[O-].CC[n+]1ccn(C)c1 [3-ethyl-1-methylimidazolium butyl sulfate]
Settings	mass density [kg/m3]	viscosity [mPa·s]
283.15 K	–	468.4
288.15 K	–	332.5
293.15 K	1179.68	242.3
294.15 K	1178.99	–
295.15 K	1178.3	–
296.15 K	1177.62	–
297.15 K	1176.93	–
298.15 K	1176.24	180.8
299.15 K	1175.55	–
300.15 K	1174.87	–
301.15 K	1174.19	–
302.15 K	1173.5	–
303.15 K	1172.82	137.9
304.15 K	1172.14	–
305.15 K	1171.46	–
306.15 K	1170.78	–
307.15 K	1170.11	–
308.15 K	1169.43	107.2
309.15 K	1168.75	–
310.15 K	1168.08	–
311.15 K	1167.41	–
312.15 K	1166.73	–
313.15 K	1166.06	84.8
314.15 K	1165.39	–
315.15 K	1164.73	–
316.15 K	1164.06	–
317.15 K	1163.39	–
318.15 K	1162.73	68.1
319.15 K	1162.06	–
320.15 K	1161.4	–
321.15 K	1160.74	–
322.15 K	1160.07	–
323.15 K	1159.41	55.6
324.15 K	1158.76	–
325.15 K	1158.1	–
326.15 K	1157.43	–
327.15 K	1156.78	–
328.15 K	1156.12	45.9
329.15 K	1155.47	–
330.15 K	1154.81	–
331.15 K	1154.16	–
332.15 K	1153.51	–
333.15 K	1152.85	38.4
334.15 K	1152.2	–
335.15 K	1151.55	–
336.15 K	1150.9	–
337.15 K	1150.25	–
338.15 K	1149.6	32.4
339.15 K	1148.95	–
340.15 K	1148.3	–
341.15 K	1147.65	–
342.15 K	1147.01	–
343.15 K	1146.37	27.7
344.15 K	1145.72	–
345.15 K	1145.07	–
346.15 K	1144.43	–
347.15 K	1143.78	–
348.15 K	1143.14	23.8
349.15 K	1142.5	–
350.15 K	1141.85	–
351.15 K	1141.21	–
352.15 K	1140.57	–
353.15 K	1139.93	20.7
354.15 K	1139.29	–
355.15 K	1138.65	–
356.15 K	1138.01	–
357.15 K	1137.37	–
358.15 K	1136.73	18.1
359.15 K	1136.09	–
360.15 K	1135.45	–
361.15 K	1134.82	–
362.15 K	1134.18	–
363.15 K	1133.54	16
368.15 K	–	14.2
373.15 K	–	12.6
